According to patent publication US10370378B2, “Treatment of sleep disorders” (Evotec International GmbH, priority 2007, dated 2019):
Marks after values point to notes of the source that are not given here.

Tests used:
Assay type in all cases: in vivo, human
[1] = system: healthy volunteers subjected to road traffic noise; assay: Example 1: placebo controlled cross-over study, road noise model
Experimental: A placebo controlled, randomized, double-blind, cross-over study of the effects of the compound of formula (II) was conducted using a road noise model using 12 healthy volunteers. Specifically, the volunteers were subjected to road traffic noise to imitate the effects of insomnia, and the medication was orally administered 5 minutes before the 11 pm bed time in 1.0 mg, 1.5 mg, 2 mg and 2.5 mg doses in the form of a hard gelatine capsule containing the powdered compound of formula (II) in free base form. Measurements were then taken at 8, 10 and 12 hours after dosing.

[2] = system: primary insomnia in adult patients; assay: Example 3: placebo-controlled crossover study in primary insomnia, adult patients younger than 65 (PSG, patient reports, DSST, safety); conditions: for Number of Patients with Any Event / Number of Patients with Headache / Number of Patients with Somnolence: number (percent)
Experimental: A randomized, multicenter, double-blind, placebo-controlled crossover study was conducted to assess the efficacy of the 1.5 mg and 2.5 mg doses of the compound of formula (II) in the treatment of primary insomnia in adult patients. Specifically, one of the objectives of the study was to asses the efficacy of 1.5 mg and 2.5 mg doses on PSG and patient-reported measures of sleep. Also, the study was aimed at assessing the safety of 1.5 mg and 2.5 mg doses.
The study in this Example was performed for two consecutive nights with a 5-12 day washout between each period. The dosing was conducted 30 minutes before lights were turned out for the night via oral administration of a hard gelatine capsule containing the compound of formula (II) (free base) in powder form. PSG was taken for 8 hours from “lights out” on nights 1 and 2 of each treatment period. Centralized scoring of PSG was used. Testing for residual effects using the Digit Symbol Substitution Test (DSST) was performed at least 30 minutes after wake time (9 hours post dose).
The study was conducted using 67 subjects younger than 65 years of age (21 males, 46 females; mean age 45.1 yrs, range 23-64 yrs) with a documented diagnosis of primary insomnia (DSM-IV criteria). These subjects' typical bed time was between 9 pm and 1 am with at least 7 hours in bed. These subjects reported sleep latency of at least 45 minutes and TST of not more than 6.5 hours in a sleep diary for at least 3 of 7 nights.
Mean WASO of the patients was at least 40 minutes and mean TST was 240-420 minutes.

[3] = system: primary insomnia, subjects at least 65 years old; assay: Example 4: placebo-controlled parallel group study, 7 nights dosing, elderly subjects with primary insomnia; conditions: for Number of subjects with any event (%): number (percent); for Adjusted mean LPS / Adjusted mean TST / Adjusted mean WASO: PSG, average of nights 1, 6 and 7; for LPS % change from placebo / WASO % change from placebo: decrease; for TST % change from placebo: increase
Experimental: A randomized, double-blind, placebo-controlled parallel group design was used to assess the hypnotic efficacy of 1.5 mg and 2.5 mg doses of the compound of formula (II) following 7 nights dosing using 149 subjects. The study was conducted in 20 sleep laboratories in the United States using both objective and subjective measures. PSG data was collected on nights 1, 6 and 7 and results are based on the mean data from these three nights. The compound of formula (II) was administered in free base form as a powder in a capsule.
The subjects were males and females at least 65 years old with a documented diagnosis of primary insomnia (DSM-IV criteria). These subjects' typical bed time was between 9 pm and 1 am with at least 7 hours in bed. These subjects reported five nights or more in seven days with TST of not more than 6.5 hours with at least 7 hours in bed. […] On screening using PSG for 2 nights, mean TST was 240-420 minutes. Mean latency in Multiple Sleep Latency Test (MSLT) was at least 5.5 minutes and not more than 14 minutes.
PSG was used to obtain TST (average of nights 1, 6 and 7). The daytime function (day 8) was measured using Psychomotor Vigilance Task (PVT), MSLT (MSLT Clinical Guidelines; Sleep, 1(3): 260-276 (1992)), Karolinska Sleepiness Scale (KSS); and objective measures Rey Auditory Verbal Learning Test (RAVLT) (day 8) (assessed 30±10 minutes after lights-on). Sleep architecture, subject reported sleep variables and categorical rating of sleep quality and safety endpoints including the Benzodiazepine Withdrawal Questionnaire were also determined.

[4] = 1.5, 2.0 & 2.5 mg oral, objective
[5] = all 4 doses (1.0, 1.5, 2, 2.5 mg)
[6] = all 4 doses, objective residual effects
[7] = 1.5 mg and 2.5 mg, across 7 nights

Compound: CN(C)Cc1nc(-c2ncn3c2CN(C)C(=O)c2c(Cl)cccc2-3)no1 [compound of formula (II), 7-chloro-3-(5-dimethylaminomethyl-[1,2,4]oxadiazol-3-yl)-5-methyl-4,5-dihydro-imidazo[1,5-a][1,4]benzodiazepine-6-one]
- Subjective assessment (LARS): Coordination ([1]; 2.5 mg): No impairment
- Subjective assessment (LARS): Mood ([1]; 2.5 mg): No impairment
- Subjective assessment (LARS): Sedation ([1]; 2.5 mg): No impairment
- WASO, 2nd half (hrs 5-8) [1, 4]: Significantly reduced
- WASO, full night (hrs 0-8) [1, 4]: Significantly reduced
- Sleep Efficiency Index ([1]; 2.0 & 2.5 mg oral, objective): Significantly improved
- TST ([1]; 2.0 & 2.5 mg oral, objective): Significantly improved
- Performance on any of the cognitive or psychomotor tests ([1]; 8 to 12 hours after dose, data corrected for multiple comparisons): no impairment
- Choice Reaction Time - Motor Component ([1]; all 4 doses): No effect (all 4 doses)
- Critical Flicker Fusion Test ([1]; all 4 doses): No effect (all 4 doses)
- Word Recall - delayed (WRd) ([1]; all 4 doses): No effect (all 4 doses)
- SWS (% and duration) [1, 5]: Significantly increased
- Stage IV Sleep (% and duration) [1, 5]: Significantly increased
- Leeds Sleep Evaluation Questionnaire: Getting to sleep ([1]; all 4 doses, model considered nondiscriminant for sleep onset): (No effect to all 4 doses)*
- Rapid Visual Information Processing [1, 6]: No effect (all 4 doses)
- Sustained Attention to Response (SART) [1, 6]: No effect (all 4 doses)
- Leeds Sleep Evaluation Questionnaire: Early morning behaviour (clumsiness & tiredness) ([1]; all 4 doses, subjective): No effect (all 4 doses)
- Leeds Sleep Evaluation Questionnaire: Ease of awakening ([1]; all 4 doses, subjective): No effect (all 4 doses)
- Sternberg Memory Task (STM) ([1]; at 8 or 12 h, all 4 doses): No effect at 8 or 12 h (all 4
- Continuous Tracking Task - reaction time ([1]; at 10 or 12 h, all 4 doses): No effect at 10 or 12 h (all
- Continuous Tracking Task - deviation ([1]; at 8 h, all 4 doses): No effect at 8 h (all 4
- Number of Patients with Any Event ([2]; 1.5 mg (n = 71)): 13 (18.3%)
- Number of Patients with Headache ([2]; 1.5 mg (n = 71)): 3 (4.2%)
- Number of Patients with Somnolence ([2]; 1.5 mg (n = 71)): 2 (2.8%)
- safety and tolerability ([2]; 1.5 mg and 2.5 mg doses): safe and well-tolerated
- patient-reported residual sedation effects compared with placebo ([2]; 1.5 mg or 2.5 mg): no patient-reported residual sedation effects
- Number of Patients with Any Event ([2]; 2.5 mg (n = 71)): 18 (25.4%)
- Number of Patients with Headache ([2]; 2.5 mg (n = 71)): 6 (8.5%)
- Number of Patients with Somnolence ([2]; 2.5 mg (n = 71)): 4 (5.6%)
- total time awake during each hour after dosing ([2]; 2.5 mg, each hour except hour 7 (p 0.0577)): statistically significant reduction
- REM sleep (sleep architecture) ([2]; 1.5 and 2.5 mg): only a small effect
- slow wave sleep (sleep architecture) ([2]; 1.5 and 2.5 mg): no impairment
- patient reported sleep quality ([2]; 1.5 and 2.5 mg doses): marked improvement
- DSST scores compared with placebo ([2]; 9 hours after dose): only slightly lower
- increase of mean TST compared to placebo ([3]; 1.5 mg): 30.9 min
- Dizziness, number of subjects (%) ([3]; 1.5 mg (n = 53)): 3 (5.7)
- Headache, number of subjects (%) ([3]; 1.5 mg (n = 53)): 5 (9.4)
- Somnolence, number of subjects (%) ([3]; 1.5 mg (n = 53)): 1 (1.9)
- Number of subjects with any event (%) ([3]; 1.5 mg (n = 53)): 15 (28.3)
- safety and tolerability ([3]; 1.5 mg and 2.5 mg doses, elderly): safe and well-tolerated
- sTST [3, 7]: significant increase
- sWASO [3, 7]: significant decrease
- subject-reported sleep onset latency [3, 7]: significant reduction
- Adjusted mean LPS ([3]; 1.5 mg): 30.5 min
- Adjusted mean TST ([3]; 1.5 mg): 369.5 min
- Adjusted mean WASO ([3]; 1.5 mg): 86.2 min
- LPS % change from placebo ([3]; 1.5 mg): 34%
- WASO % change from placebo ([3]; 1.5 mg): 15%
- total wake time hour by hour ([3]; 1.5 mg, each hour up to hour 6): significantly reduced
- TST % change from placebo ([3]; 1.5 mg): 9%
- WASO in the second half of the night (5-8 hours after lights out) ([3]; 2.5 mg): significant decrease
- increase of mean TST compared to placebo ([3]; 2.5 mg): 56.4 min
- Dizziness, number of subjects (%) ([3]; 2.5 mg (n = 52)): 5 (9.6)
- Headache, number of subjects (%) ([3]; 2.5 mg (n = 52)): 3 (5.8)
- Somnolence, number of subjects (%) ([3]; 2.5 mg (n = 52)): 6 (11.5)
- Number of subjects with any event (%) ([3]; 2.5 mg (n = 52)): 19 (36.5)
- Adjusted mean LPS ([3]; 2.5 mg): 26.5 min
- Adjusted mean TST ([3]; 2.5 mg): 395 min
- Adjusted mean WASO ([3]; 2.5 mg): 65.3 min
- LPS % change from placebo ([3]; 2.5 mg): 43%
- WASO % change from placebo ([3]; 2.5 mg): 36%
- TWT hour by hour ([3]; 2.5 mg, every hour except hour 7): significantly reduced
- TST % change from placebo ([3]; 2.5 mg): 17%
- residual sedation, subject reported ([3]; 30 minutes post wake time (approximately 9 hours post dose)): no residual sedation
- KSS (subjective) versus placebo ([3]; day 8): no significant difference
- MSLT average sleep latency over all timepoints (2, 4, 6, 8 & 10 hours post wake time) ([3]; day 8, daytime function): increased
- Benzodiazepine Withdrawal Questionnaire versus placebo ([3]; either dose): No significant difference
- PVT or RAVLT versus placebo ([3]; either dose, day 8): no significant differences
- sleep architecture (PSG) ([3]; human, in vivo): generally preserved sleep architecture
- subjective sleep quality ([3]; over all 7 nights of dosing): sustained improvement
